# Non-standard residues stand in square brackets, D forms with d. No end group written: not given here. Cit = NC(=O)NCCC[C@H](N)C(=O)O; R(Me)2 = dimethyl-arginine; Abu = CC[C@H](N)C(=O)O; Aib = CC(C)(N)C(=O)O
# Key:
# [1] = test system: SKOV3 (human ovarian carcinoma) cells, very low αvβ6 cell surface expression; test: αvβ6 ligand binding, flow cytometry of Cy5-labeled ligand-polymer conjugates, SKOV3 negative-control cells; type: cell-based; conditions: Cy5-polymer conjugate 5 μg/ml, 37° C., 3 h; specific MFI ratio = sample MFI/no-ligand MFI
# Description: (§1) Each αvβ6 ligand was attached to a reversibly modified 1170-100B polymer cargo molecule. The 1170-100B polymer cargo molecule (a 56:44 ethoxyethylamine acrylate:propyl acrylate copolymer having a MW of about 45000) was labeled with Cy5 (NHS linker) and combined with aldehyde-PEG24-ACit at a weight ratio of 2:1 (polymer:aldehyde-PEG24-ACit) in 50 mM HEPES pH 9.0 buffer for 1 h at RT to form (aldehyde-PEG24-ACit)n-1170-100B wherein n is an integer greater than 0. Typically, n was about 10.
# (§2) The aldehyde-PEG24-ACit-modified polymer was then reacted with PEG12-ACit at a weight ratio of 1:8 (polymer:PEG12-ACit) in 50 mM HEPES, pH 9.0 buffer for 1 h at RT to form (aldehyde-PEG24-ACit)n-1170-100B-(CitA-PEG12)m, wherein m is an integer greater than 0.
# (§3) The modified polymer was then purified using a sephadex G-50 spin column and concentration determined:
# (§4) Each αvβ6 ligand was modified with HyNic to facilitate conjugation to the cargo molecule. Purified polymer was combined with αvβ6 ligand-(PEG)8-K-HyNic at a weight ratio of 1:1.9 (polymer: αvβ6 ligand) in 50 mM NaOAC-HOAc, pH 5.0 buffer at RT overnight to form the αvβ6 ligand-polymer conjugate. The αvβ6 ligand-polymer conjugate was purified using a sephadex G-50 spin column.
# Conjugation efficiency was quantified by measuring Absorbance of the αvβ6-polymer conjugate at 354 nm using an extinction coefficient of […] M^−1 cm^−1 for bis-aryl hydrazone bond. […]
# To assess for specificity of binding of the αvβ6 ligands to the αvβ6 integrin, each αvβ6 ligand or negative control peptide was conjugated to a Cy5-labeled polymer (as described above) and evaluated for binding to cells. […] Samples were analyzed on a BD Biosciences Canto II cytometer equipped with a violet (405 nm), blue (488 nm) and red (633 nm) lasers. […] These viable cells were then assessed for conjugate binding/uptake with the red laser as the Mean Fluorescence Intensity (MFI) of the Cy5 fluorophore. […] A specific MFI Ratio (sMFIr) for each αvβ6 ligand was determined by the formula: specific sample MFI value/no-ligand MFI value.
# [2] = test system: H2009 (human lung epithelial adenocarcinoma) cells, αvβ6 integrin expressing; test: αvβ6 ligand binding, flow cytometry of Cy5-labeled ligand-polymer conjugates, H2009 αvβ6 positive cells; type: cell-based; conditions: Cy5-polymer conjugate 5 μg/ml, 37° C., 3 h, specific MFI ratio = sample MFI/no-ligand MFI
# Description: as §1, §2, §3, §4
# Conjugation efficiency was quantified by measuring Absorbance of the αvβ6-polymer conjugate at 354 nm using an extinction coefficient of […] M^−1 cm^−1 for bis-aryl hydrazone bond.
# αvβ6-polymer conjugates were diluted with isotonic glucose solution to desired concentrations for further analysis.
# To assess for specificity of binding of the αvβ6 ligands to the αvβ6 integrin, each αvβ6 ligand or negative control peptide was conjugated to a Cy5-labeled polymer (as described above) and evaluated for binding to cells. […] H2009 (human lung epithelial adenocarcinoma) and CAPAN-2 (human pancreas adenocarcinoma) cells served as the αvβ6 positive-control cell lines. Cells were detached from culturing flasks with Accutase, washed in PBS, and seeded into 5 ml polystyrene round-bottom tubes at 200,000 cells in 200 μl complete media (culturing media with supplements and fetal calf serum). αvβ6 ligand-polymer conjugates or no-ligand-polymer conjugates were added at 5 μg/ml (polymer-Cy5 concentration) to cells, mixed and incubated at 37° C. for 3 h. Incubation at 37° C. facilitated ligand/receptor interaction which may result in static binding to the extracellular cell surface and/or internalized ligand/receptor complexes. The mixture was re-suspended at 1 h intervals. Following a 3 h incubation, cells were washed 2× with 4 ml chilled buffer (PBS-2% FCS) and re-suspended in 200 μl buffer containing 10 μM SYTOX blue stain for live/dead cell gating. Samples were analyzed on a BD Biosciences Canto II cytometer equipped with a violet (405 nm), blue (488 nm) and red (633 nm) lasers. Viable cells were initially gated as the SYTOX blue negative population on the C detector with the violet laser. These viable cells were then assessed for conjugate binding/uptake with the red laser as the Mean Fluorescence Intensity (MFI) of the Cy5 fluorophore. Data analyses were performed with FlowJo v10.1 software. A specific MFI Ratio (sMFIr) for each αvβ6 ligand was determined by the formula: specific sample MFI value/no-ligand MFI value.
Substance,MFI SKOV3 [1],MFI H2009 [2],MFI H2009 ([2]; listed as AcR(Me)2GDLATLRQL)
Ac-R(Me)2GDLATLRQL (Ac-[R(Me)2]GDLATLRQL) [negative control peptide],0.9,1,did not show significant binding
CH3(CH2)2-RGDLAAbuLCitAib ({CH3(CH2)2}-RGDLA[Abu]L[Cit][Aib]),,3.9,
CH3(CH2)3-RGDLAAbuLCitAib ({CH3(CH2)3}-RGDLA[Abu]L[Cit][Aib]),,4.7,
CH3(CH2)4-RGDLAAbuLCitAib ({CH3(CH2)4}-RGDLA[Abu]L[Cit][Aib]),,4.1,
CH3CH2-RGDLAAbuLCitAib (CH3CH2-RGDLA[Abu]L[Cit][Aib]),,4.4,
Dap(guanidino)-GDLATLRQL ({Dap(guanidino)}-GDLATLRQL),1.4,3.4,
des-amino-RGDLATLRQL ({des‑amino}-RGDLATLRQL; not fully specified (residue 1); printed as des-amino-RGDLATLRQL),0.8,1.1,
meta-guanidino-benzoic-GDLATLRQL ({meta‑guanidino‑benzoic}-GDLATLRQL),,4.5,

# From US11180529B2, “Alpha-v beta-6 integrin ligands and uses thereof” (Arrowhead Pharmaceuticals, Inc., priority 2016, dated 2021)
